Molecular target: T1, VEGFR/KDR (Homo sapiens, UniProt P35968)
T1 construct: made in house; host or cells: Sf9 cells (Spodoptera frugiperda), baculovirus
Assay: VEGFR/KDR kinase inhibition, DELFIA assay
Format: biochemical
Details: ATP 0.6 uM (2x Km), enzyme 5 nM
Outline: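 Enzyme (5 nM) pre-incubated 4 min on ice with inhibitor and Mg-ATP (0.6 uM, 2× Km), then reacted 10-30 min at 30° C on immobilized poly(Glu4,Tyr). EDTA-quenched phosphotyrosine detected with Europium-labeled antibody by time-resolved fluorescence; IC50 from concentration series.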

T1 sequence (P35968 806-1356): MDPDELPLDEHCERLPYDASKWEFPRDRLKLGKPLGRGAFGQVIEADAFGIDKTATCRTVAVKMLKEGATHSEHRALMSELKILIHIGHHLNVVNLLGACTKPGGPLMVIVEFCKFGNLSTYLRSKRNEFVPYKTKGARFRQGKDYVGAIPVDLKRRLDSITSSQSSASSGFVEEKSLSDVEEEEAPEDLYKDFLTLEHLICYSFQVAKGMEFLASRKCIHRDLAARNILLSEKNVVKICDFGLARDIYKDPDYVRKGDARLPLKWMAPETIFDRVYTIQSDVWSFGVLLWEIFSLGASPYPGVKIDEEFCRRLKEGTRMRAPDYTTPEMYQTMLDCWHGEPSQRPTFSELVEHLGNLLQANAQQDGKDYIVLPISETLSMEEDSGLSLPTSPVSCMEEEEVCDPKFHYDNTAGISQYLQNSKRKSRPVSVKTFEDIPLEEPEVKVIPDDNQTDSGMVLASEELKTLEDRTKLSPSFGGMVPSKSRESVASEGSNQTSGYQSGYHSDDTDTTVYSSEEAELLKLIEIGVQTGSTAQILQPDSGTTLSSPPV

Row | SMILES | IC50 [nM]
1 | CN(C)CCNC(=O)[C@@H]1CCCN1Cc1ccc(-c2cc3nccc(Oc4ccc(NC(=O)NC5CC5)cc4F)c3s2)nc1 [Compound 487, (S)-1-((6-(7-(4-(3-cyclopropylureido)-2-fluorophenoxy)thieno[3,2-6]pyridin-2-yl)pyridin-3-yl)methyl)-N-(2-(dimethylamino)ethyl) pyrrolidine-2-carboxamide] | < 50
2 | CN1CCN(C(=O)[C@@H]2CCCN2Cc2ccc(-c3cc4nccc(Oc5ccc(NC(=O)NC6CC6)cc5F)c4s3)nc2)CC1 [Compound 488, (S)-1-cyclopropyl-3-(3-fluoro-4-(2-(5-((2-(4-methylpiperazine-1-carbonyl)pyrrolidin-1-yl)methyl)pyridin-2-yl)thieno[3,2-b]pyridin-7-yloxy)phenyl)urea] | < 50
3 | CN1CCN(C(=O)C2CN(Cc3ccc(-c4cc5nccc(Oc6ccc(NC(=O)NC7CC7)cc6F)c5s4)nc3)C2)CC1 [Compound 489, 1-cyclopropyl-3-(3-fluoro-4-(2-(5-((3-(4-methylpiperazine-1-carbonyl)azetidin-1-yl)methyl)pyridin-2-yl)thieno[3,2-b]pyridin-7-yloxy)phenyl)urea] | < 50
4 | CN(C)CCNC(=O)C1CN(Cc2ccc(-c3cc4nccc(Oc5ccc(NC(=O)NC6CC6)cc5F)c4s3)nc2)C1 [Compound 490, 1-((6-(7-(4-(3-cyclopropylureido)-2-fluorophenoxy)thieno[3,2-b]pyridin-2-yl)pyridin-3-yl)methyl)-N-(2-(dimethylamino)ethyl)azetidine-3-carboxamide] | < 50
5 | CN(C)CCNC(=O)C1CCCN(Cc2ccc(-c3cc4nccc(Oc5ccc(NC(=O)NC6CC6)cc5F)c4s3)nc2)C1 (stereo not shown) [Compound 491, 1-((6-(7-(4-(3-cyclopropylureido)-2-fluorophenoxy)thieno[3,2-b]pyridin-2-yl)pyridin-3-yl)methyl)-N-(2-(dimethylamino)ethyl)piperidine-3-carboxamide] | < 50
6 | O=C(Nc1ccc(Oc2ccnc3cc(-c4ccc(CN5CCCC(C(=O)NCCO)C5)cn4)sc23)c(F)c1)NC1CC1 (stereo not shown) [Compound 492, 1-((6-(7-(4-(3-cyclopropylureido)-2-fluorophenoxy)thieno[3,2-b]pyridin-2-yl)pyridin-3-yl)methyl)-N-(2-hydroxyethyl)piperidine-3-carboxamide] | < 50
7 | CN1CCN(C(=O)C2CCCN(Cc3ccc(-c4cc5nccc(Oc6ccc(NC(=O)NC7CC7)cc6F)c5s4)nc3)C2)CC1 (stereo not shown) [Compound 493, 1-cyclopropyl-3-(3-fluoro-4-(2-(5-((3-(4-methylpiperazine-1-carbonyl)piperidin-1-yl)methyl)pyridin-2-yl)thieno[3,2-b]pyridin-7-yloxy)phenyl)urea] | < 50
8 | CN(CCO)C(=O)C1CCCN(Cc2ccc(-c3cc4nccc(Oc5ccc(NC(=O)NC6CC6)cc5F)c4s3)nc2)C1 (stereo not shown) [Compound 494, 1-((6-(7-(4-(3-cyclopropylureido)-2-fluorophenoxy)thieno[3,2-b]pyridin-2-yl)pyridin-3-yl)methyl)-N-(2-hydroxyethyl)-N-methylpiperidine-3-carboxamide] | < 50
9 | N[C@H]1CCN(Cc2ccc(-c3cc4nccc(Oc5ccc(NC(=O)NC6CC6)cc5F)c4s3)nc2)C1 [Compound 495, (S)-1-(4-(2-(5-((3-aminopyrrolidin-1-yl)methyl)pyridin-2-yl)thieno[3,2-b]-pyridin-7-yloxy)-3-fluorophenyl)-3-cyclopropylurea] | < 50
10 | CC1(C)CN(Cc2ccc(-c3cc4nccc(Oc5ccc(NC(=O)NC6CC6)cc5F)c4s3)nc2)CCN1 [Compound 496, 1-cyclopropyl-3-(4-(2-(5-((3,3-dimethylpiperazin-1-yl)methyl)pyridin-2-yl)thieno[3,2-b]pyridin-7-yloxy)-3-fluorophenyl)urea] | < 50
11 | O=C(CO)N[C@H]1CCN(Cc2ccc(-c3cc4nccc(Oc5ccc(NC(=O)NC6CC6)cc5F)c4s3)nc2)C1 [Compound 497, (S)-N-(1-((6-(7-(4-(3-cyclopropylureido)-2-fluorophenoxy)thieno[3,2-b]pyridin-2-yl)-pyridin-3-yl)methyl)pyrrolidin-3-yl)-2-hydroxyacetamide] | < 50
12 | CC1(C)CN(Cc2ccc(-c3cc4nccc(Oc5ccc(NC(=O)NC6CC6)cc5F)c4s3)nc2)CCN1C(=O)CO [Compound 498, 1-cyclopropyl-3-(3-fluoro-4-(2-(5-((4-(2-hydroxyacetyl)-3,3-dimethylpiperazin-1-yl)methyl)pyridin-2-yl)thieno[3,2-b]pyridin-7-yloxy)phenyl)urea] | < 50
13 | C=CC(=O)N1CCN(Cc2ccc(-c3cc4nccc(Oc5ccc(NC(=O)NC6CC6)cc5F)c4s3)nc2)CC1(C)C [Compound 499, 1-(4-(2-(5-((4-acryloyl-3,3-dimethylpiperazin-1-yl)methyl)pyridin-2-yl)thieno[3,2-b]pyridin-7-yloxy)-3-fluorophenyl)-3-cyclopropylurea] | < 50
14 | CC1(C)CN(Cc2ccc(-c3cc4nccc(Oc5ccc(NC(=O)NC6CC6)cc5F)c4s3)nc2)CCN1CCO [Compound 500, 1-cyclopropyl-3-(3-fluoro-4-(2-(5-((4-(2-hydroxyethyl)-3,3-dimethylpiperazin-1-yl)methyl)pyridin-2-yl)thieno[3,2-b]pyridin-7-yloxy)phenyl)urea] | < 50
15 | COCCNCc1ccc(-c2cc3nccc(Oc4ccc(NC(=S)NC5CC5)cc4F)c3s2)nc1 [Compound 502, 1-Cyclopropyl-3-(3-fluoro-4-(2-(5-((2-methoxyethylamino)methyl)pyridin-2-yl)thieno[3,2-b]pyridin-7-yloxy)phenyl)thiourea] | < 50
16 | CCNC(=O)N(CCOC)Cc1ccc(-c2cc3nccc(Oc4ccc(NC(=S)NC5CC5)cc4F)c3s2)nc1 [Compound 503, 1-((6-(7-(4-(3-cyclopropylthioureido)-2-fluorophenoxy)thieno[3,2-b]pyridin-2-yl)pyridin-3-yl)methyl)-3-ethyl-1-(2-methoxyethyl)urea] | 50 to 100
17 | COCCN(Cc1ccc(-c2cc3nccc(Oc4ccc(NC(=S)NC5CC5)cc4F)c3s2)nc1)C(C)=O [Compound 504, N-((6-(7-(4-(3-cyclopropylthioureido)-2-fluorophenoxy)thieno[3,2-b]pyridin-2-yl)pyridin-3-yl)methyl)-N-(2-methoxyethyl)acetamide] | < 50
18 | COCCN(Cc1ccc(-c2cc3nccc(Oc4ccc(NC(=S)NC5CC5)cc4F)c3s2)nc1)C(=O)CO [Compound 505, N-((6-(7-(4-(3-cyclopropylthioureido)-2-fluorophenoxy)thieno[3,2-b]pyridin-2-yl)pyridin-3-yl)methyl)-2-hydroxy-N-(2-methoxyethyl)acetamide] | 50 to 100
19 | COC(=O)CC(=O)N1CCN(Cc2ccc(-c3cc4nccc(Oc5ccc(NC(=O)NC6CC6)cc5F)c4s3)nc2)CC1 [Compound 506, methyl 3-(4-((6-(7-(4-(3-cyclopropylureido)-2-fluorophenoxy)thieno[3,2-b]pyridin-2-yl)pyridin-3-yl)methyl)piperazin-1-yl)-3-oxopropanoate] | < 50
20 | COC(=O)CCN1CCN(Cc2ccc(-c3cc4nccc(Oc5ccc(NC(=O)NC6CC6)cc5F)c4s3)nc2)CC1 [Compound 507, methyl 3-(4-((6-(7-(4-(3-cyclopropylureido)-2-fluorophenoxy)thieno[3,2-b]pyridin-2-yl)pyridin-3-yl)methyl)piperazin-1-yl)propanoate] | < 50
21 | COC(=O)CC(C)N1CCN(Cc2ccc(-c3cc4nccc(Oc5ccc(NC(=O)NC6CC6)cc5F)c4s3)nc2)CC1 (stereo not shown) [Compound 508, methyl 3-(4-((6-(7-(4-(3-cyclopropylureido)-2-fluorophenoxy)thieno[3,2-b]pyridin-2-yl)pyridin-3-yl)methyl)piperazin-1-yl)butanoate] | < 50
22 | CCOC(=O)CC(N1CCN(Cc2ccc(-c3cc4nccc(Oc5ccc(NC(=O)NC6CC6)cc5F)c4s3)nc2)CC1)C(F)(F)F (stereo not shown) [Compound 509, ethyl 3-(4-((6-(7-(4-(3-cyclopropylureido)-2-fluorophenoxy)thieno[3,2-b]pyridin-2-yl)pyridin-3-yl)methyl)piperazin-1-yl)-4,4,4-trifluorobutanoate] | < 50
23 | O=C(O)CC(=O)N1CCN(Cc2ccc(-c3cc4nccc(Oc5ccc(NC(=O)NC6CC6)cc5F)c4s3)nc2)CC1 [Compound 510, 3-(4-((6-(7-(4-(3-cyclopropylureido)-2-fluorophenoxy)thieno[3,2-b]pyridin-2-yl)pyridin-3-yl)methyl)piperazin-1-yl)-3-oxopropanoic acid] | < 50
24 | O=C(O)CC(N1CCN(Cc2ccc(-c3cc4nccc(Oc5ccc(NC(=O)NC6CC6)cc5F)c4s3)nc2)CC1)C(F)(F)F (stereo not shown) [Compound 511, 3-(4-((6-(7-(4-(3-cyclopropylureido)-2-fluorophenoxy)thieno[3,2-b]pyridin-2-yl)pyridin-yl)methyl)piperazin-1-yl)-4,4,4-trifluorobutanoic acid] | < 50
25 | O=C(Nc1ccc(Oc2ccnc3cc(-c4ccc(CN5CCN(CCc6nnn[nH]6)CC5)cn4)sc23)c(F)c1)NC1CC1 [Compound 512, 1-(4-(2-(5-((4-(2-(1H-tetrazol-5-yl)ethyl)piperazin-1-yl)methyl)pyridin-2-yl)thieno[3,2-b]pyridin-7-yloxy)-3-fluorophenyl)-3-cyclopropylurea] | < 50
26 | CCOC(=O)CC(C)N1CCN(Cc2ccc(-c3cc4nccc(Oc5ccc(NC(=O)NC6CC6)cc5F)c4s3)nc2)CC1 (stereo not shown) [Compound 515, Ethyl 3-(4-((6-(7-(4-(3-cyclopropylureido)-2-fluorophenoxy)thieno[3,2-b]pyridin-2-yl)pyridin-3-yl)methyl)piperazin-1-yl)butanoate] | < 50
27 | CC(CC(=O)O)N1CCN(Cc2ccc(-c3cc4nccc(Oc5ccc(NC(=O)NC6CC6)cc5F)c4s3)nc2)CC1 (stereo not shown) [Compound 516] | < 50
28 | O=C(O)CCCCN1CCN(Cc2ccc(-c3cc4nccc(Oc5ccc(NC(=O)NC6CC6)cc5F)c4s3)nc2)CC1 [Compound 518, 5-(4-((6-(7-(4-(3-cyclopropylureido)-2-fluorophenoxy)thieno[3,2-b]pyridin-2-yl)pyridin-3-yl)methyl)piperazin-1-yl)pentanoic acid] | < 50

From patent US8906852B2 (MethylGene Inc., priority 2010, dated 2014)
